Reference: the CheMixHub ionic liquid set

Test: xn = mol fraction of the nth substance listed

OC[C@H]1O[C@@](CO)(O[C@H]2O[C@H](CO)[C@@H](O)[C@H](O)[C@H]2O)[C@@H](O)[C@@H]1O + O + CCCCCC[n+]1ccn(C)c1.[Br-]
viscosity [mPa·s], 100 kPa
Conditions	x1 = 0.001819, x3 = 0	x1 = 0.002681, x3 = 0	x1 = 0.003595, x3 = 0	x1 = 0.004483, x3 = 0	x1 = 0.006262, x3 = 0	x1 = 0.007151, x3 = 0	x1 = 0.008891, x3 = 0
288.15 K	1.252	1.306	1.362	1.414	1.517	1.571	1.678
298.15 K	0.98	1.021	1.065	1.104	1.182	1.222	1.295
308.15 K	0.789	0.822	0.855	0.886	0.949	0.978	1.035
318.15 K	0.657	0.683	0.709	0.733	0.783	0.805	0.86

Cc1ncc(C[n+]2csc(CCO)c2C)c(N)n1.Cl.[Cl-] + O + CCCC[N+](CCCC)(CCCC)CCCC.O=S(=O)([O-])O
viscosity [mPa·s], 101 kPa
Conditions	x1 = 0.0003639, x3 = 0	x1 = 0.0006573, x3 = 0	x1 = 0.0009524, x3 = 0	x1 = 0.001251, x3 = 0	x1 = 0.001553, x3 = 0	x1 = 0.001856, x3 = 0
298.15 K	0.9024	0.914	0.9244	0.9372	0.9488	0.959
308.15 K	0.7301	0.7393	0.7485	0.7576	0.768	0.7772
318.15 K	0.6037	0.6116	0.6196	0.6275	0.6343	0.6413

O=C1O[C@H]([C@@H](O)CO)C(O)=C1O + O + CCCC[N+](CCCC)(CCCC)CCCC.O=S(=O)([O-])O
viscosity [mPa·s], 101 kPa
Conditions	x1 = 0.0003639, x3 = 0	x1 = 0.0006573, x3 = 0	x1 = 0.0009524, x3 = 0	x1 = 0.001251, x3 = 0	x1 = 0.001553, x3 = 0	x1 = 0.001856, x3 = 0
298.15 K	0.899	0.904	0.91	0.916	0.922	0.927
308.15 K	0.724	0.728	0.732	0.738	0.743	0.748
318.15 K	0.6	0.604	0.608	0.612	0.616	0.621

NC(N)=O + O + CCCC[n+]1ccn(C)c1.F[B-](F)(F)F
298.15 K, 100 kPa
Conditions	viscosity [mPa·s]
x1 = 0.008492, x2 = 0.9402	1.98
x1 = 0.01695, x2 = 0.9318	2.01
x1 = 0.02496, x2 = 0.9237	2.06
x1 = 0.03322, x2 = 0.9155	2.05
x1 = 0.0408, x2 = 0.9079	2.15

CC(=O)[O-].[Na+] + O + CCCC[n+]1ccn(C)c1.N#C[S-]
Conditions	viscosity [mPa·s]
323.15 K, 101 kPa, x1 = 0.08925, x2 = 0.9088	2.515

CCCCCCCCCCCCCCCC[N+](C)(C)C.[Br-] + O + CO
electrical conductivity [S/m], 101 kPa
Conditions	293 K	298 K	303 K	308 K	313 K
x1 = 1.91e-06, x2 = 0.92	0.0025	0.0026	0.0022	0.0037	0.003
x1 = 5.74e-06, x2 = 0.92	0.0046	0.0047	0.0044	0.0063	0.0059
x1 = 9.57e-06, x2 = 0.92	0.0065	0.0067	0.0069	–	0.0088
x1 = 1.148e-05, x2 = 0.92	0.0077	0.0079	0.0083	0.0107	0.0106
x1 = 1.34e-05, x2 = 0.92	0.0087	0.009	0.0096	0.0122	0.0122
x1 = 1.531e-05, x2 = 0.92	0.0099	0.0102	0.0109	–	0.014
x1 = 1.723e-05, x2 = 0.92	0.0111	0.0114	0.0123	0.0157	0.016
x1 = 1.914e-05, x2 = 0.92	0.0121	0.0125	0.0138	0.0174	0.018
x1 = 2.871e-05, x2 = 0.92	0.0168	0.018	0.0199	0.0248	0.0261
x1 = 3.828e-05, x2 = 0.92	0.0215	0.0236	0.0263	0.0325	0.0352
x1 = 5.742e-05, x2 = 0.9199	0.0306	0.0338	0.0381	0.0467	0.0521
x1 = 7.656e-05, x2 = 0.9199	0.0391	0.0441	0.0502	0.0608	0.0687
x1 = 9.57e-05, x2 = 0.9199	0.0439	0.0508	0.0579	0.0702	–
x1 = 0.0001148, x2 = 0.9199	0.0472	0.0552	0.0632	0.0758	–
x1 = 0.000134, x2 = 0.9199	0.05	0.0585	0.0675	0.0806	–
x1 = 0.0001531, x2 = 0.9199	0.0527	0.0618	0.0719	0.0858	–
x1 = 0.0001722, x2 = 0.9198	0.0554	0.0652	0.0758	0.0904	–
x1 = 0.0001914, x2 = 0.9198	0.0582	0.0684	0.0801	0.0955	–
x1 = 0.0002105, x2 = 0.9198	0.0607	0.0715	0.0839	0.101	–
x1 = 0.0002296, x2 = 0.9198	0.0631	0.0747	0.0879	0.105	–
x1 = 0.0002488, x2 = 0.9198	0.0661	0.078	0.0917	0.11	–
x1 = 0.0002679, x2 = 0.9198	0.0688	0.0811	0.0958	0.115	–

CCCCCCCCCCCCCCCC[N+](C)(C)C.[Br-] + O=C(CO)[C@@H](O)[C@H](O)[C@@H](O)CO + O
viscosity [mPa·s], 100 kPa
Conditions	298.15 K	308.15 K	318.15 K
x1 = 7.21e-06, x2 = 0	0.896	0.742	0.617
x1 = 1.442e-05, x2 = 0	0.898	0.744	0.617
x1 = 2.162e-05, x2 = 0	0.9	0.745	0.617

CCCC[P+](CCCC)(CCCC)CCCC.[O-]c1cccnc1 + O=C=O
Conditions	viscosity [mPa·s]
293 K, 101 kPa, x2 = 0.5098	90000
